Measured values reported in article PMC2784108 (Bioorganic & medicinal chemistry, 2009).

Columns and labels:
[1] = target: HDM2(11–119) (Homo sapiens, UniProt Q00987); test: Fluorescence anisotropy competition, HDM2 binding to fluorescein-labeled p53
[2] = target: T1, GST-HDMX(1–188) (Homo sapiens, UniProt O15151); test: Fluorescence anisotropy competition, HDMX binding to fluorescein-labeled p53
T1 sequence (O15151 1-188): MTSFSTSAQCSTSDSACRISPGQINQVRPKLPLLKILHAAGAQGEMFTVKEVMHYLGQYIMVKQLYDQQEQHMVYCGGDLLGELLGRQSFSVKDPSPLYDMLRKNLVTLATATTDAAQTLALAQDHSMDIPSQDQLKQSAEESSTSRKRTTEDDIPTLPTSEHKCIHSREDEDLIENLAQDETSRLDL

[3] = compared with derivative with hydrogen at position Y (NAPA 5)
[4] = bromine at position Y replaced with methyl, compared with NAPA 9

| SMILES | inhibition of HDM2-p53 binding (in words) [1] | inhibition of HDMX-p53 binding (in words) [2] | further results |
| --- | --- | --- | --- |
| CC(C)CCC(=O)NC(CCC(=O)O)CN(CCC1CCC2(CCCCC2)CC1)C(CCCCN)CN(CCCCc1ccc(Br)cc1)[C@@H](CCC(=O)O)CN(CCCCCc1ccc(F)cc1)CCC(N)=O (stereo partly drawn) [NAPA 36] | no inhibitory activity | no inhibitory activity | – |
| CC(C)CCC(=O)N[C@@H](CCCC(=O)O)CN(C(=O)NCCCC1CCCCC1)[C@@H](CCCCN)CN(C(=O)NCCc1ccc(Br)cc1)[C@@H](CCCC(=O)O)CN(CCC(N)=O)C(=O)NCCCc1ccc(F)cc1 [NAPA 34] | negative impact on inhibitory activity | negative impact on inhibitory activity | – |
| NCCCC[C@@H](CN(C(=O)NCCCC1CCCCC1)[C@@H](CCCCN)CN(C(=O)NCCc1ccc(Br)cc1)[C@@H](CCCCN)CN(CCC(N)=O)C(=O)NCCCc1ccc(F)cc1)NC(N)=O [NAPA 35] | eliminated all inhibitory activity | eliminated all inhibitory activity | – |
| CC(C)CCCCNC(=O)N(CC(CCC(=O)O)NC(N)=O)C(CCCCN)CN(C(=O)NCCc1ccc(Br)cc1)C(CCC(=O)O)CN(CCC(N)=O)C(=O)NCCCc1ccc(Br)cc1 (stereo not drawn) [NAPA 13] | modest inhibition | modest inhibition | – |
| CC(C)CCCNC(=O)N(CC(CCC(=O)O)NC(N)=O)C(CCCCN)CN(C(=O)NCCc1ccc(Br)cc1)C(CCC(=O)O)CN(CCC(N)=O)C(=O)NCCCc1ccc(Br)cc1 (stereo not drawn) [NAPA 9] | – | – | inhibition of HDM2 binding with p53 relative to NAPA 5 [1, 3]: two to four times better; inhibition of HDMX binding with p53 relative to NAPA 5 [2, 3]: two to four times better |
| Cc1ccc(CCCNC(=O)N(CCC(N)=O)CC(CCC(=O)O)N(CC(CCCCN)N(CC(CCC(=O)O)NC(N)=O)C(=O)NCCCC(C)C)C(=O)NCCc2ccc(Br)cc2)cc1 (stereo not drawn) [NAPA 10] | – | – | activity against HDM2 relative to NAPA 9 [1, 4]: decreased by three times; inhibitory activity towards HDMX relative to NAPA 9 [2, 4]: did not significantly affect |
